In article PMC6487070, “Molecular transport through primary human small intestinal monolayers by culture on a collagen scaffold with a gradient of chemical cross-linking” (Journal of Biological Engineering, 2019):
Read-outs that look alike come from different tables or passages of the source.

How the values were obtained:
Assay type in all cases: in vitro ADME
[1] = system: P-gp; assay: Bidirectional transport of digoxin across monolayers with and without zosuquidar; conditions: human, n = 3, read-out: efflux ratio Papp(B-L)/Papp(L-B)
Protocol: (§1) All transport assays were performed by adding LY ([…]) and the drug to the luminal or basal reservoirs of the monolayer (n = 3). Samples were collected after 3 h. LY was added to ensure that monolayer integrity remained intact throughout the assay. Additionally, TEER was measured before and after the assay to further verify that monolayer integrity remained constant throughout the assay. Monolayers with a TEER > 90 Ω cm^2 or 300 Ω cm^2 were used for the gradient cross-linked scaffold and conventional scaffold, respectively. […] Zosuquidar and Ko143 were added to inhibit digoxin transport and prazosin transport, respectively, 2.5 h after addition of the substrate. Samples were collected 30 min after inhibitor addition for a totally assay time of 3 h.
The concentration of the drug in the collected sample was determined using HPLC-triple quadrupole mass spectrometry (LC-MS/MS, PE Sciex API 3000, AB Sciex) with multiple reaction monitoring (MRM). A C-18 analytical column with a linear gradient from 100% water with 1% formic acid to 80% acetonitrile with 1% formic acid over 8 min (0.3 mL/min) was used for the separation. […] Digitoxin was used as an internal standard for digoxin samples. Doxasozin was used an internal standard for prazosin samples. All internal standards were added to samples just prior to LC-MS/MS analysis. […] Sample concentrations were quantified using the standard curve and normalized to the signal of the appropriate internal standard. The drug apparent permeability was calculated according to the following equation: Papp = (V/(A x Ci)) x (Cf/T) where V is the volume of the basal chamber (mL), A is the area of epithelial layer (cm^2), Ci is the initial concentration of the molecule (nM), Cf is the final concentration of the drug, and T is the assay time (s). The average Papp with a single standard deviation is shown (average ± SD). The efflux ratio was calculated according to the following equation: Efflux Ratio = Papp(B-L)/Papp(L-B).

[2] = molecular target: T1, BCRP (Homo sapiens, UniProt Q9UNQ0); assay: Bidirectional transport of prazosin across monolayers with and without Ko143; conditions: gradient cross-linked scaffold
T1 construct: endogenous in cells; host or cells: primary human small intestinal epithelial cell monolayers on a gradient cross-linked or conventional collagen scaffold
T1 sequence (Q9UNQ0 1-655): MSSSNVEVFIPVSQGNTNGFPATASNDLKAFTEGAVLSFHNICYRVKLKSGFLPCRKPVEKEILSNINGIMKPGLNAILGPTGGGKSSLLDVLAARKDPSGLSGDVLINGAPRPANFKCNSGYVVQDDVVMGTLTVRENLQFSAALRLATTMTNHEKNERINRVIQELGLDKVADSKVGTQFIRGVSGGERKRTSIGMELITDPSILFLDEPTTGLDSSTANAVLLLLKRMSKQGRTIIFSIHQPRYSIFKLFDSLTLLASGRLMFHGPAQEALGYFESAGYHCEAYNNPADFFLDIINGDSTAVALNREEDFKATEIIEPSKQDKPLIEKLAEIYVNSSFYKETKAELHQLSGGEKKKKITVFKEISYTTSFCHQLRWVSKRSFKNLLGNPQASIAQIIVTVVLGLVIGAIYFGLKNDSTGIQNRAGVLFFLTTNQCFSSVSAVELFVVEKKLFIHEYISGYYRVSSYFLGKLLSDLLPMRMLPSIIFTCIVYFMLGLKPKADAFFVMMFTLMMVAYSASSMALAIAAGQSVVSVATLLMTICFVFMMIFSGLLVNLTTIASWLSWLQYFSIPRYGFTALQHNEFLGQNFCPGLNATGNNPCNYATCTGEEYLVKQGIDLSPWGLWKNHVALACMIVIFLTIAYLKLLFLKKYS
Protocol: as §1, with “Samples were collected 30 min after inhibitor addition for a totally assay time of 3 h.” left out
The concentration of the drug in the collected sample was determined using HPLC-triple quadrupole mass spectrometry (LC-MS/MS, PE Sciex API 3000, AB Sciex) with multiple reaction monitoring (MRM). […] Sample concentrations were quantified using the standard curve and normalized to the signal of the appropriate internal standard. The drug apparent permeability was calculated according to the following equation: Papp = (V/(A x Ci)) x (Cf/T) where V is the volume of the basal chamber (mL), A is the area of epithelial layer (cm^2), Ci is the initial concentration of the molecule (nM), Cf is the final concentration of the drug, and T is the assay time (s). […]

[3] = system: primary human small intestinal epithelial monolayers; assay: Monolayer integrity: permeability of LY and fluorescein-dextran through small intestinal epithelial monolayers; conditions: monolayers on gradient cross-linked scaffold and on conventional scaffold; luminal to basal, 3 h; n = 3
Protocol: Neither LY nor fluorescein-dextran are transported by the intestinal epithelium. The TEER was measured using an EVOM^2 epithelial Volt/Ohm meter (World Precision Instruments, Sarasota, FL). The raw resistance measurements of the monolayers were subtracted from that of the average resistance (n = 3) of the collagen layer without cells and normalized by multiplying the cell culture area of the well to provide a TEER in units of Ω cm^2 [48]. The average TEER (n = 3) with a single standard deviation (SD) is shown (average ± SD). […] The amount of LY (ex: 428 nm, em: 520 nm) and fluorescein-dextran (ex: 490 nm, em: 520 nm) in the basal side was determined by measuring their fluorescence in a microplate reader (Spectramax M5, Molecular Devices Corporation, San Jose, CA). The luminal-to-basal apparent permeability (Papp) were calculated according to the following equation: […] The average Papp with a single standard deviation is shown (average ± SD).

## C[C@H]1O[C@@H](O[C@H]2[C@@H](O)C[C@H](O[C@H]3[C@@H](O)C[C@H](O[C@H]4CC[C@@]5(C)[C@H](CC[C@@H]6[C@@H]5C[C@@H](O)[C@]5(C)[C@@H](C7=CC(=O)OC7)CC[C@]65O)C4)O[C@@H]3C)O[C@@H]2C)C[C@H](O)[C@@H]1O [digoxin]
[1]; conventional scaffold, no inhibitor
  efflux ratio at 3 h: 2.3
[1]; gradient cross-linked scaffold, no inhibitor
  efflux ratio at 3 h: 2.7
[1]; with zosuquidar (concentration not stated), conventional scaffold, in the presence of P-gp inhibitor zosuquidar
  efflux ratio at 3 h: 1.4
[1]; with zosuquidar (concentration not stated), gradient cross-linked scaffold, in the presence of P-gp inhibitor zosuquidar
  efflux ratio at 3 h: 1.4

## COc1cc2nc(N3CCN(C(=O)c4ccco4)CC3)nc(N)c2cc1OC [prazosin]
[2]; no inhibitor, read-out: efflux ratio Papp(B-L)/Papp(L-B)
  efflux ratio at 3 h: 6.5
[2]; with Ko143 (concentration not stated), with BCRP inhibitor Ko143, read-out: efflux ratio Papp(B-L)/Papp(L-B)
  efflux ratio at 3 h: 1.7

## Lucifer yellow [LY]
[3]
  permeability through confluent, differentiated monolayers: low
